This note sets out measurements from patent US20100179098A1, “FUROST-5-ENE-3, 22, 26-TRIOL GLYCOSIDE COMPOUND FOR PREVENTING AND TREATMENT CANCER” (priority 2006, published 2010).

Like-named read-outs stand apart in the source and are kept apart here.

Assay [1] concerns GP7TB cells. The experiment in a line: Growth inhibition (cell number), GP7TB. The format is cell-based, rat. Particulars: for Amount of Cells: GP7TB, mean of triplicate; for IC50: Rattus norvegicus, GP7TB cells, read-out: 50% inhibition concentration (IC50). As for the experimental part:
Rat liver cancer cell line GP7TB and human liver cancer cell line Huh-7 and HepG2 at 10^4 cells each were seeded in individual wells of a 96-well cultural plate. After overnight incubation, different concentrations of the extracts were added therein for 24 hours. Subsequently, the medium was discarded, and the medium with 20 μl/ml of MTS was added for 1 hour. Since MTS reagent contains 3-(4,5-dimethylhiazol-2-yl)-5-(3-carboxymethoxyphenyl)-2-(4-sulfophenyl)-2H-tetrazolium, which could be metabolized by NADH or NADPH dehydrogenase in living cells to a formazan product, cellular survival rates could be estimated from different readings at 490 nm.
The experiments were performed in triplicate and the results were performed by average calculation.

For assay [2], the system named is GP7TB cells. The experiment in a line: In vivo growth inhibition of rat liver tumor by intratumoral injection. As for the experimental part: The back of each rat was injected subcutaneously with 3×10^6 cells of GP7TB cells. The tumor grows up to 0.3 cm in diameter after about one week. A single dose of dichotomin (PK-22-1, 2.0 mg/kg) or the control buffer (PBS) was directly injected into the tumor once every day for 8 consecutive days. The tumor size was measured, and the cancer cell growth inhibition effects of the control group and dichotomin treated group were compared.

Assay [3] has as its system GP7TB cells. The experiment in a line: Nuclear DNA fragmentation (agarose gel electrophoresis), GP7TB. It is filed as cell-based, rat. Particulars: 12.5 μg/ml, 48 hours. How it is done: To understand the GP7TB cell growth inhibition mechanism of the active components and the extracts, GP7TB cells were treated with the extracts and dichotomin at a constant concentration of 12.5 μg/ml for 48 hours. The cellular DNA was extracted and analyzed with agarose gel electrophoresis. […] Therefore, it could be concluded that dichotomin could induce apoptosis of the abovementioned cell lines.

The subject of a further assay is HepG2 cells. The experiment in a line: Nuclear DNA fragmentation (agarose gel electrophoresis), HepG2. As to conditions: HepG2, 12.5 μg/ml, 48 hours. It is filed as cell-based, human.
Assay [4] has as its system GP7TB cells. The experiment in a line: Ex-vivo anti-tumor experiment: pretreated GP7TB cells grafted in F344 rats. Also on record: species or system rat. As to conditions: GP7TB cells pretreated 12.5 μg/ml 24 hours; 5×10^6 cells S.C.; after three weeks. How it is done:
GP7TB cells (3×10^6 cells each) were incubated in several 10-cm cultural dishes and treated with dichotomin (PK-22-1) or the extract without dichotomin (PK-22-3) at a concentration of 12.5 μg/ml for 24 hours. These cells were collected. GP7TB cells, PK-22-1-treated GP7TB cells, and PK-22-3-treated GP7TB cells (5×10^6 cells each) were separately injected subcutaneously at three different locations on the back of each F344 rat. […] The tumor sizes of rats inoculated with GP7TB cells treated with the extract PK-22-3 without dichotomin were the same as those of rats treated with GP7TB cells (control group).

The test system of a further assay is Colon, HT-29. The experiment in a line: alamarBlue cancer cell inhibition, HT-29. The format is cell-based. As to conditions: HT-29, 72 hours. As for the experimental part:
(§1) Each suspension of various cancer cell lines was inoculated in a 96-well cultural plate and incubated at 37° C. under 5% carbon dioxide for 24 hours. Then, 100 μL of medium and 2 μl of different concentrations (100, 10, 1, 0.1 and 0.01 μM) of dichotomin (PK-22-1) were added therein. In addition, the cancer cells treated with a control drug, mitomycin, were incubated and treated in the same manner. After 72 hours of incubation, 20 μl of alamarBlue reagent was added into each well and the cells were incubated for another 6 hours. Cell densities were detected with a fluorescence detector, GENios equipped with a microreader, using an exciting wavelength of 530 nm and an emission wavelength of 590 nm. The IC50 value means the concentration at which the experimental drug reduces the cell numbers by 50% at the end of the experiment. This value represents the inhibition activity of the test drugs.
For orientation: Resazurin is reduced to fluorescent resorufin, in cell work by metabolically active cells.

For another assay, the system named is Liver, Hep 3B. The experiment in a line: alamarBlue cancer cell inhibition, Hep 3B. The format is cell-based. As to conditions: 72 hours. As for the experimental part: as §1
A further assay relates to Lung, A549. The experiment in a line: alamarBlue cancer cell inhibition, A549. It is filed as cell-based. Particulars: A549, 72 hours. How it is done:
as §1

Regarding “(25R)-26-O-beta-D-glucopyranosyl-22-hydroxy-5-ene-furostan-3beta, 26-diol-3-O-alpha-L-rhamnopyranosyl-(1→4)-alpha-L-rhamnopyranosyl-(1→4)-[alpha-L-rhamnopyranosyl-(1→2)]-beta-D-glucopyranoside [PK-22-1]”, the “Amount of Cells” value in the assay with GP7TB cells [1] (1 μg/ml) is listed as 1.30 × 10^5 cells/ml; in the assay on GP7TB cells [1] (2 μg/ml) it was 4.60 × 10^4 cells/ml; in the assay on GP7TB cells [1] (4 μg/ml) it was 2.00 × 10^4 cells/ml; in the assay on GP7TB cells [1] (6 μg/ml) it was 1.10 × 10^4 cells/ml; in the assay on GP7TB cells [1] (8 μg/ml), 5.00 × 10^4 cells/ml; with GP7TB cells [1] (10 μg/ml), 3.00 × 10^3 cells/ml. Further, in the assay with GP7TB cells [1] (12 μg/ml), the “Amount of Cells” value is reported as 1.60 × 10^3 cells/ml. Besides, the “Tumor volume after injection (Day 8)” value in the assay on GP7TB cells [2] (2.0 mg/kg into the tumor once daily for 8 days, volume = 0.52 × length × width × height) is “(0.692 cm^3)”. Further, the “Apoptosis of cancer cells in tumor (pathological section)” value in the assay with GP7TB cells [2] (2.0 mg/kg intratumoral, 8 days) is “exhibited apoptosis”. Further, in the assay on GP7TB cells [2] (2.0 mg/kg intratumoral, 8 days, vs PBS), the “Tumor size relative to the control group” value was “only half the size”. The “Tumor volume before injection (Day 0)” value in the assay on GP7TB cells [2] (baseline, volume = 0.52 × length × width × height) is listed as “(0.142 cm^3)”. Also, the “Growth (folds)” value in the assay with GP7TB cells [2] (tumor volume Day 8 vs Day 0, 2.0 mg/kg intratumoral, PBS control 9.26) is recorded as 4.87 folds. The “Nuclear DNA fragmentation” value in the assay on GP7TB cells [3] and in the assay on HepG2 cells was “most notable effects” throughout. Further, in the assay with GP7TB cells [4], the “Rats that did not form any tumor” value was “six rats of the nine”. For the same molecule, the “Tumor size relative to tumors from untreated GP7TB cells (control group)” value in the assay with GP7TB cells [4] is listed as “one sixth”. Besides, the IC50 is 7300 nM with Colon, HT-29; 8500 nM in the assay with Liver, Hep 3B; 840 nM in the assay on Lung, A549.

On to `CO[C@@]12[C@H](COC(N)=O)C3=C(C(=O)C(C)=C(N)C3=O)N1C[C@@H]1N[C@@H]12` [Mitomycin, reference compound], for which the IC50 was found to be 330 nM in the assay with Colon, HT-29 (Homo sapiens); 40 nM in the assay with Liver, Hep 3B (Homo sapiens, Hep3B); 160 nM in the assay on Lung, A549 (Homo sapiens).

Regarding `COc1cccc2c1C(=O)c1c(O)c3c(c(O)c1C2=O)C[C@@](O)(C(=O)CO)C[C@@H]3O[C@H]1C[C@H](N)[C@H](O)[C@H](C)O1` [Adriamycin], the “Amount of Cells” value with GP7TB cells [1] (1 μg/ml) is 7.80 × 10^4 cells/ml; in the assay with GP7TB cells [1] (2 μg/ml), 2.30 × 10^4 cells/ml; in the assay on GP7TB cells [1] (4 μg/ml), 2.00 × 10^4 cells/ml; in the assay with GP7TB cells [1] (6 μg/ml) it was 3.00 × 10^4 cells/ml; in the assay on GP7TB cells [1] (8 μg/ml) it was 2.50 × 10^4 cells/ml; with GP7TB cells [1] (10 μg/ml), 2.30 × 10^4 cells/ml. Also, the “Amount of Cells” value in the assay on GP7TB cells [1] (12 μg/ml) was 1.60 × 10^4 cells/ml. The IC50 was 1.54 µg/mL with GP7TB cells [1] (by mass) and 2660 nM in the assay with GP7TB cells [1] (molar).
